# Entries after “also recorded” stand apart in the source; their conditions may differ.
# Legend:
# [1] = tested on: Hela S3 human cervix epitheloid carcinoma cells; assay: Hela S3 hydroxyurea resistant cervix carcinoma xenograft in SCID mice; assay type: in vivo, human cells in mice
# Description: BxPC-3 is a gemcitabine resistant call line. […] Gemcitabine was administered intravenously every three days at a dose of 100 mg/kg. Antitumour activities were estimated by the inhibition of tumour volume, which was measured with caliper. Each point represents mean tumour volume calculated from 10 animals per experimental group. […] Hela S3 is a hydroxyurea resistant cell line. […] Hydroxyurea was administered intraperitoneally every day at a dose of 250 mg/kg for 10 days. Cisplatin was administered intravenously once a week for three weeks at a dose of 4 mg/kg. Antitumour activities were estimated by the inhibition of tumour volume, which was measured with caliper. Each point represents mean tumour volume calculated from 10 animals per experimental group. […] Cisplatin was administered intravenously once a week for three weeks at a dose of 4 mg/kg. Taxol was administered intravenously once a week for three weeks at a dose of 10 mg/kg. Antitumour activities were estimated by the inhibition of tumour volume, which was measured with caliper. Each point represents mean tumour volume calculated from 10 animals per experimental group. […] Taxol was administered i.p. once a week at a dose of 10 mg/kg. Antitumour activities were estimated by the inhibition of tumour volume (FIG. 12A), which was measured with calipers. Each point represents mean tumour volume calculated from 10 animals per experimental group. Animals were sacrificed and tumour weights taken at the end of the study (FIG. 12C). […] The effects of combined treatment were greater than either treatment alone. […] Cisplatin was administered intravenously once a week for four weeks at a dose of 4 mg/kg. Taxol was administered intravenously once a week for four weeks at a dose of 20 mg/kg. Antitumour activities were estimated by the inhibition of tumour volume, which was measured with caliper. Each point represents mean tumour volume calculated from 9-10 animals per experimental group. […] Cisplatin was administered intravenously once a week for four weeks at a dose of 4 mg/kg. Antitumour activities were estimated by the inhibition of tumour volume, which was measured with caliper. Each point represents mean tumour volume calculated from 10 animals per experimental group. At the end of the study the animals were sacrificed and tumours weighed. […] Taxol was administered i.p. once a week at a dose of 10 mg/kg. Anti-tumour activity was estimated by the inhibition of tumour volume, which was measured with caliper. Each point represents mean tumour volume calculated from 10 animals per experimental group. In addition animals were sacrificed and tumour weights taken at the end of the study. […] CPT-11 was administered i.p. for 5 days at a dose of 20 mg/kg/day. Antitumour activities were estimated by the inhibition of tumour volume, which was measured with caliper. Each point represents mean tumour volume calculated from 10 animals per experimental group. Tumour weights were measured after animals were sacrificed at the end of the treatment. These cells are not resistant to CPT-11 which was used as a positive control.
# [2] = tested on: DU145 human prostatic cancer cells; assay: DU145 prostatic tumour xenograft in SCID mice, combination with mitoxantrone (1.5); assay type: in vivo, human cells in mice
# Description: After 52 days the mice were sacrificed and the tumours weighed. […] In both experiments, PC-3 human prostatic cancer cells (1×10^7 cells in 100 μl of PBS) were subcutaneously injected into the right flank of 6-7 weeks old male SCID mice. After the size of tumour reached an approximate volume of 50 mm^3, 14 days post tumour cell injection, SEQ ID NO: 1 was administered by bolus infusion into the tail vein every other day at 10 mg/kg 18 times (FIG. 4A) or 17 times (FIG. 4B), respectively. Control animals received saline alone for the same period. Antitumour effect of SEQ ID NO:1 was further compared to that of mitoxantrone (novantrone) alone or in combination. Mitoxantrone was administered intravenously once at the beginning of the treatments at a dose of 2 mg/kg (FIG. 4A) or once a week for four weeks at a reduced dose of 0.8 mg/kg (FIG. 4B). All treatments were stopped at day 50 (FIG. 4A) or 48 (FIG. 4B), respectively. A day after the last treatment, tumours were excised from the animals and their weights were measured. […] In both experiments, DU145 human prostatic cancer cells (1×10^7 cells in 100 μl of PBS) were subcutaneously injected into the right flank of 6-7 weeks old male SCID mice. After the size of tumour reached an approximate volume of 50 mm^3, 13 (FIG. 5A) or 11 (FIG. 5B) days post tumour cell injection, SEQ ID NO:1 was administered by bolus infusion into the tail vein every other day at 10 mg/kg 15 times (FIG. 5A) or 14 times (FIG. 5B), respectively. Control animals received saline alone for the same period. Antitumour effect of SEQ ID NO:1 was further compared to that of mitoxantrone (novantrone) alone or in combination. Mitoxantrone was administered intravenously once at the beginning of the treatments at a dose of 2 mg/kg (FIG. 5A) or once a week for four weeks at a reduced dose of 0.8 mg/kg (FIG. 5B). All treatments were stopped at day 42 (FIG. 5A) or 38 (FIG. 5B), respectively. A day after the last treatment, tumours were excised from the animals and their weights were measured.
# [3] = Pharmacokinetics in the monkey, 21 day continuous intravenous infusion; assay type: in vivo
# Description: The toxicokinetics and tissue distribution of SEQ ID NO:1 (and related oligonucleotide metabolites obtained from exonuclease-mediated chain shortening) were determined in rats and monkeys. In addition to investigating the pharmacokinetics and tissue distribution of SEQ ID NO:1, the purpose of the studies was to correlate adverse effects in the animal studies to the concentrations of SEQ ID NO:1 (and metabolites) in tissue and blood. A capillary electrophoresis (CE) method was used to measure the concentrations of SEQ ID NO:1 (and metabolites) in plasma and tissues.
# SEQ ID NO:1 was administered to monkeys by continuous intravenous infusion for 21 days followed by a 21-day recovery period. Twenty-eight monkeys were administered one of the following dose levels; vehicle control, 2, 10, or 50 mg/kg/day (24.6, 123, and 615 mg/m^2/day). Toxicokinetic samples were collected prior to the initiation of infusion, approximately 8, 24, 48, and 96 hours following the start of infusion, and on Day 20 prior to the change in dose-syringes.
# human whole blood = assay: Intravenous compatibility assay (haemolysis); assay type: cell-based; conditions: static or dynamic conditions
# [4] = Acute intravenous toxicity study in the monkey; assay type: in vivo; conditions: rhesus monkeys
# Description: Intravenous infusion of SEQ ID NO:1 for 24 hours at doses up to 80 mg/kg/day (984 mg/m^2/day) was well-tolerated by rhesus monkeys. […] These effects indicate an apparent inhibition of the intrinsic coagulation pathway, and modest activation of the alternative complement pathway, respectively. These treatment-related changes were typical class effects of phosphorothioate oligonucleotide administration.
# [5] = 10 mg/kg/day continuous i.v. infusion 21 days
# [6] = 50 mg/kg/day continuous i.v. infusion 21 days
substance,measurement,setting,value
"5′-GGCTAAATCGCTCCACCAAG-3′ (all phosphorothioate, sugars by position and methylation of C not given here) [SEQ ID NO: 1, fully phosphorothioated antisense oligonucleotide that hybridizes to the coding region of R2 mRNA]",Tumour weight as % of saline control,"[1]; Hela S3 (cervix), hydroxyurea resistant, SCID, SEQ ID NO:1 10 mg/kg i.v. every other day 6 times, Hydroxyurea 250 mg/kg i.p. daily 10 days, Cisplatin 4 mg/kg i.v. weekly x3",24%
same,"Antitumour effect (tumour volume, FIG. 10)","[1]; Hela S3 hydroxyurea resistant, SCID mice, SEQ ID NO:1 10 mg/kg i.v. every other day, Hydroxyurea 250 mg/kg i.p. daily, Cisplatin 4 mg/kg i.v. weekly",significant delay of tumour growth compared to saline control; also recorded: superior to the inhibitory effects observed with Cisplatin alone
same,Tumour weight as % of saline control,"[2]; DU145 (prostatic), SCID, second of two printed values (two independent experiments), SEQ ID NO:1 10 mg/kg i.v. every other day, mitoxantrone i.v.",41%
same,"Antitumour effect (tumour weight, FIG. 5A)","[2]; DU145, SCID mice, SEQ ID NO:1 10 mg/kg i.v. every other day 15 times, mitoxantrone 2 mg/kg i.v. once",significant delay of tumour growth compared to saline control
same,Plasma concentrations,[3]; 2 mg/kg dose group,could not be detected
same,median Tmax,[3]; 10 mg/kg dose group,20 days
same,Cl,[3]; [5],3.47 ± 0.867 mL/min/kg
same,Cmax,[3]; [5],2.94 µg/mL
same,Css,[3]; [5],2.10 ± 0.48 µg/mL
same,Tmax (mean),[3]; [5],13.5 days
same,median Tmax,[3]; 50 mg/kg dose group,1 days
same,Cl,[3]; [6],2.17 ± 0.267 mL/min/kg
same,Cmax,[3]; [6],20.3 µg/mL
same,Css,[3]; [6],16.2 ± 2.2 µg/mL
same,Tmax (mean),[3]; [6],7.12 days
same,Time to steady state plasma concentration,[3]; continuous i.v. infusion,steady state by eight hours after dosing
same,Haemolytic activity (cell lysis and haemoglobin release),human whole blood,did not cause haemolysis under static or dynamic conditions
same,"Clinical signs, body weight, blood pressure, heart rate, serum biochemistry, haematology","[4]; 24 hour i.v. infusion, any dose","No treatment-related clinical signs or changes in body weight, blood pressure, heart rate, serum biochemistry or haematology parameters"
same,Deaths,"[4]; 24 hour i.v. infusion, doses up to 80 mg/kg/day",no deaths during the study
same,Complement split product Bb,"[4]; end of infusion at 20, 40, and 80 mg/kg/day",slight treatment-related increases in complement split product Bb
same,APTT,[4]; end of infusion at 40 and 80 mg/kg/day,Mild treatment-related changes in APTT
same,Tolerability,[4]; intravenous infusion for 24 hours at doses up to 80 mg/kg/day (984 mg/m^2/day),well-tolerated
